Laboratory results taken from PubChem BioAssay AID1845208 (Molecular Pharmacology Branch, DTP, NCI, 2023).

Test system: NCI-H196 SCLC complex tumor spheroid viability
Assay: Anticancer human tumor NCI-H196 cell line growth inhibition;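 further: spheroids exposed to compounds for 7 days before readout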;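 on viability, T/C: 100% = DMSO vehicle control wells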
Details: for IC50: curve of first compound; for viability, T/C: stronger effect = lower value
In short: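 Complex tumor spheroids combined malignant cells with endothelial cells and mesenchymal stem cells. DNA-damaging drugs and DNA repair inhibitors were tested alone and in combination, at half-log dilutions down from clinical Cmax (top 10 microM if Cmax unknown), 0.25% DMSO final.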

[1] = second compound 1 µM, first compound 0.00949 µM
[2] = second compound 1 µM, first compound 0.03 µM
[3] = second compound 1 µM, first compound 0.0949 µM
[4] = second compound 1 µM, first compound 0.3 µM
[5] = second compound 1 µM, first compound 0.949 µM
[6] = second compound 1 µM, first compound 3 µM
[7] = second compound 3.16 µM, first compound 0.00949 µM
[8] = second compound 3.16 µM, first compound 0.03 µM
[9] = second compound 3.16 µM, first compound 0.0949 µM
[10] = second compound 3.16 µM, first compound 0.3 µM
[11] = second compound 3.16 µM, first compound 0.949 µM
[12] = second compound 3.16 µM, first compound 3 µM
[13] = second compound 10 µM, first compound 0.00949 µM
[14] = second compound 10 µM, first compound 0.03 µM
[15] = second compound 10 µM, first compound 0.0949 µM
[16] = second compound 10 µM, first compound 0.3 µM
[17] = second compound 10 µM, first compound 0.949 µM
[18] = second compound 10 µM, first compound 3 µM
[19] = second compound 31.6 µM, first compound 0.00949 µM
[20] = second compound 31.6 µM, first compound 0.03 µM
[21] = second compound 31.6 µM, first compound 0.0949 µM
[22] = second compound 31.6 µM, first compound 0.3 µM
[23] = second compound 31.6 µM, first compound 0.949 µM
[24] = second compound 31.6 µM, first compound 3 µM
[25] = second compound 100 µM, first compound 0.00949 µM
[26] = second compound 100 µM, first compound 0.03 µM
[27] = second compound 100 µM, first compound 0.0949 µM
[28] = second compound 100 µM, first compound 0.3 µM
[29] = second compound 100 µM, first compound 0.949 µM
[30] = second compound 100 µM, first compound 3 µM

| SMILES | IC50 (second compound 1 µM) [µM] | IC50 (second compound 3.16 µM) [µM] | IC50 (second compound 10 µM) [µM] | IC50 (second compound 31.6 µM) [µM] | IC50 (second compound 100 µM) [µM] | viability, T/C [3] [%] | viability, T/C [4] [%] | viability, T/C [5] [%] | viability, T/C [6] [%] | viability, T/C [9] [%] | viability, T/C [10] [%] | viability, T/C [11] [%] | viability, T/C [12] [%] | viability, T/C [15] [%] | viability, T/C [16] [%] | viability, T/C [17] [%] | viability, T/C [18] [%] | viability, T/C [21] [%] | viability, T/C [22] [%] | viability, T/C [23] [%] | further results |
| --- | --- | --- | --- | --- | --- | --- | --- | --- | --- | --- | --- | --- | --- | --- | --- | --- | --- | --- | --- | --- | --- |
| CNCc1ccc(-c2cc(-c3nc(-c4ccc(S(=O)(=O)C(C)C)cc4)cnc3N)on2)cc1 + Cn1nnc2c(C(N)=O)ncn2c1=O | > 3 | > 3 | > 3 | > 3 | > 3 | 106 | 99.5 | 84.1 | 85.2 | 104 | 105 | 88.1 | 88.2 | 105 | 99.5 | 95.3 | 84.4 | 106 | 105 | 91.4 | viability, T/C [1]: 100%; viability, T/C [2]: 92.1%; viability, T/C [7]: 98.7%; viability, T/C [8]: 97.4%; viability, T/C [13]: 100%; viability, T/C [14]: 96.3%; viability, T/C [19]: 102%; viability, T/C [20]: 113%; viability, T/C [24]: 82.9%; viability, T/C [25]: 107%; viability, T/C [26]: 109%; viability, T/C [27]: 112%; viability, T/C [28]: 99.6%; viability, T/C [29]: 88.3%; viability, T/C [30]: 84.3% |
| Cc1sc2c(c1C)C(c1ccc(Cl)cc1)=NC(CC(=O)Nc1ccc(O)cc1)c1nnc(C)n1-2 (stereo not given) + Cn1nnc2c(C(N)=O)ncn2c1=O | 0.589 | 0.669 | 0.716 | 1.34 | 2.45 | 86.6 | 68.1 | 37.3 | 21.1 | 98.8 | 75.5 | 39 | 23.3 | 91.6 | 69.1 | 44 | 27.6 | 93.7 | 87.1 | 54.5 | viability, T/C [1]: 102%; viability, T/C [2]: 99.5%; viability, T/C [7]: 103%; viability, T/C [8]: 97.4%; viability, T/C [13]: 105%; viability, T/C [14]: 102%; viability, T/C [19]: 108%; viability, T/C [20]: 106%; viability, T/C [24]: 34.9%; viability, T/C [25]: 115%; viability, T/C [26]: 105%; viability, T/C [27]: 103%; viability, T/C [28]: 85%; viability, T/C [29]: 67%; viability, T/C [30]: 46.4% |
| Cn1ncnc1[C@H]1c2n[nH]c(=O)c3cc(F)cc(c23)N[C@@H]1c1ccc(F)cc1 + Cn1nnc2c(C(N)=O)ncn2c1=O | > 3 | > 3 | > 3 | > 3 | > 3 | 99.5 | 95.5 | 86.6 | 94 | 104 | 103 | 88.9 | 99.5 | 104 | 90.9 | 110 | 89.2 | 94.8 | 93.2 | 100 | viability, T/C [1]: 103%; viability, T/C [2]: 92%; viability, T/C [7]: 105%; viability, T/C [8]: 105%; viability, T/C [13]: 104%; viability, T/C [14]: 100%; viability, T/C [19]: 104%; viability, T/C [20]: 91.6%; viability, T/C [24]: 91.3%; viability, T/C [25]: 102%; viability, T/C [26]: 94.5%; viability, T/C [27]: 94.5%; viability, T/C [28]: 94.8%; viability, T/C [29]: 99%; viability, T/C [30]: 89.5% |
| O=C(c1cc(Cc2n[nH]c(=O)c3ccccc23)ccc1F)N1CCN(C(=O)C2CC2)CC1 + Cn1nnc2c(C(N)=O)ncn2c1=O | > 30 | > 30 | > 30 | > 30 | > 30 | 102 | 102 | 93.3 | 89.1 | 97.7 | 94.3 | 104 | 98.1 | 99.6 | 97.9 | 92.6 | 95.2 | 101 | 101 | 100 | viability, T/C (second compound 1 µM, first compound 9.49 µM): 86.1%; viability, T/C (second compound 1 µM, first compound 30 µM): 83.7%; viability, T/C (second compound 3.16 µM, first compound 9.49 µM): 85.5%; viability, T/C (second compound 3.16 µM, first compound 30 µM): 79.8%; viability, T/C (second compound 10 µM, first compound 9.49 µM): 92.4%; viability, T/C (second compound 10 µM, first compound 30 µM): 90.8%; viability, T/C [24]: 106%; viability, T/C (second compound 31.6 µM, first compound 9.49 µM): 98.7%; viability, T/C (second compound 31.6 µM, first compound 30 µM): 86.8%; viability, T/C [27]: 95.6%; viability, T/C [28]: 96.5%; viability, T/C [29]: 98.7%; viability, T/C [30]: 87.6%; viability, T/C (second compound 100 µM, first compound 9.49 µM): 86.7%; viability, T/C (second compound 100 µM, first compound 30 µM): 76.2% |
